Here are results for eight molecules from patent US5840936A, “Aminosterol compounds useful as inhibitors of the sodium/proton exchanger (NHE)” (priority 1995, dated 1998).

Entries after “also recorded” stand apart in the source; their conditions may differ.

A short description of data set [1]: Fasting blood glucose in mice. The format is in vivo, male CD-1 mice. Here is the method:
To study the effect of steroid administrator or the NHE responsible for secretion of insulin, several of the aminosterols from shark liver were administered to fasting mice. Male CD-1 mice were assigned to one of four treatment groups. Whole blood glucose was tested using glucometer (Lifescan Glucometer II and One Touch test strips). Statistical analysis was via one-way analysis of variance (ANOVA) followed by subsequent Bonferonni's t-test.

The test system of data set [2] is Xenopus tadpoles, stage 59-60. Nature of the data set: Xenopus tadpole assay. To be noted: for Pharmacologic similarity in tadpole assay: in vivo.
The target of data set [3] is NHE3. Conditions: cited from earlier work.
Data set [4] relates to L1210 lymphoblastic leukemia. Nature of the data set: Mouse model of L1210 leukemia. To be noted: mouse, in vivo.
Text: C57B mice were inoculated with L1210 lymphoblastic leukemia cells at an inoculum that causes leukemia in 100% of animals.
Data set [5] concerns human melanoma. Nature of the data set: Time course of effect on melanoma growth; apoptosis. It is filed as cell-based.
In data set [6] the test system is HM. Nature of the data set: HM MTT assay. It is filed as cell-based. Conditions: Table II; read-out: HM MTT assay, Minimum Effective Concentration. Background: Tetrazolium assays rely on reduction of a dye to a coloured formazan, in cell work by metabolically active cells.
For data set [7], the system named is chick embryo vitelline capillaries. The data set is described as follows: Chick embryo vitelline capillary regression assay. The format is in vivo. More on the design: key to Vitelline capillary regression: +: Vascular reactivity; 0: No vascular reactivity; +/-: Equivocal reactivity. Here is the method:
Using the chick embryo vitelline capillaries assay, compounds were tested for their ability to induce capillary regression. Each compound was applied in 0.1 ml of 15% Ficol 400 and PBS onto the embryo, and vascular regression was assessed after 60 minutes.
The 3-day chick embryo consists of an embryonic disc from which numerous vessels emerge and return, forming a "FIG. 8"-shaped structure--the embryo in the center with vascular loops extending outward over both poles. […] Following a lag period of around 15 minutes, the constriction of continuity between capillary and secondary vessels, generally on the "venous" side, was observed. Continued pulsatile blood flow progressed, resulting in a "swelling" of the blind tube, followed by a pinching off of the remaining connection and formation of an enclosed vascular sac resembling a "blood island." This process progressed until only the largest vessels remained intact.

Data set [8] has as its system ELC. Nature of the data set: ELC MTT. To be noted: Table II; read-out: ELC MTT, Minimum Effective Concentration. The format is cell-based.
For data set [9], the target named is NHE2. To be noted: cited from earlier work.
Data set [10] concerns the target NHE1. Conditions: cited from earlier work.

`CC(C)C(CO)(CC[C@@H](C)[C@H]1CC[C@H]2[C@@H]3[C@H](O)C[C@H]4C[C@@H](NCCCNCCCCN)CC[C@]4(C)[C@H]3CC[C@]12C)OS(=O)(=O)O` (single isomer, unassigned) [Compound 1437]: the “Hyperglycemia” value in data set [1] (i.v., 1436 in D5W, 1437 in water) is reported as “caused hyperglycemia in mice”. The “Fasting Blood Glucose Mean ± SEM” value in [1] (total dose 20 mg/kg i.v. (2 × 10 mg/kg), 30 min. after 2d dose) amounted to 82 ± 15.3 mg/dL. In data set [2] (10 μg/ml), the “Tadpole assay, observed effects” value was “Epithelium covering the embryonic portions of the animal, such as the tail and antennae, began to slough off in sheets; also recorded: the larval skin was observed to shed off in a sheet”.
For `N=C(N)NC(=O)c1nc(Cl)c(N)nc1N` [Amiloride], the Ki in data set [3] is 100 µM.
For `N.N.[Cl][Pt][Cl]` [Cisplatin, reference compound], the “Hematological profile” value in data set [4] is given as “profound anemia by day 28”.
Take `CC(C)CCC[C@@H](C)[C@H]1CC[C@H]2[C@@H]3CC[C@H]4C[C@@H](NCCCNCCCCNCCCN)CC[C@]4(C)[C@H]3CC[C@]12C` [Compound 353]: in data set [5], the Apoptosis result is on record as “apoptotic cell death has been induced” and the “Time course of effect on growth of melanoma” value was “most pronounced over 48 hours, with less of an effect noted within the first 12 hours of incubation”. In addition, in data set [6], the minimal effective concentration stood at 3 µg/mL. Further, in data set [7] (1 μg applied), the Vitelline capillary regression result is “+/-”. Moreover, the “Effect on chick embryo vessels” value in [7] (3- to 5-day chick embryo) is recorded as “no effect on the chick embryo capillary bed”. Besides, the minimal effective concentration in data set [8] stood at 1.9 µg/mL. The “Pharmacologic similarity in tadpole assay” value (“Pharmacologic similarity” below) in data set [2] is given as “effects like those produced by compound 1436”.
In the case of `COC(=O)CC[C@@H](C)[C@H]1CC[C@H]2[C@@H]3[C@H](O)C[C@@H]4C[C@H](NCCN)CC[C@]4(C)[C@H]3CC[C@]12C` [Compound 410], the minimal effective concentration in data set [6] was 2.6 µg/mL. Also, the Vitelline capillary regression in [7] (0.001 μg applied) is given as 0; in data set [7] (0.01 μg applied), “+/-”; in data set [7] (0.1 μg applied), “+/-”; in [7] (1 μg applied) it was “+”. In addition, the “Pharmacologic similarity” value in data set [2] is “functionally similar to compound 1437”.
Regarding `C[C@H](CCC(=O)O)[C@H]1CC[C@H]2[C@@H]3[C@H](O)C[C@@H]4C[C@H](NCCCNCCCCNCCCN)CC[C@]4(C)[C@H]3CC[C@]12C` [Compound 412], in [6], the minimal effective concentration stood at 18.1 µg/mL. Also, the Vitelline capillary regression in data set [7] (0.001 μg applied) is listed as 0; in data set [7] (0.01 μg applied) it was 0; in [7] (0.1 μg applied), 0; in [7] (1 μg applied), “+”. Also, the “Pharmacologic similarity” value in [2] is “pharmacologic activity similar to that seen for FX 3”.
`CN(C)c1nc(N)c(C(=O)N=C(N)N)nc1Cl` [DMA, dimethylamiloride]: the inhibition constant Ki in [9] is 700 nM; in [10], 100 nM; in [3], 11 µM.
In the case of `CCCN(C)c1nc(N)c(C(=O)N=C(N)N)nc1Cl` [MPA, methylpropylamiloride], the Ki in [9] is 5000 nM; in [10], 80 nM; in [3], 10 µM.

One may read the Ki as a measure of affinity in units of concentration, obtained from inhibition or displacement.
